By IC50 is commonly meant the concentration that gives 50% inhibition. The low end stands for greater potency, the high end for weaker potency.

One compound from article PMC5078989, “Targeted inhibition of the COP9 signalosome for treatment of cancer” (Nature Communications, 2016) can be followed below.

Common to all, as to assay type: biochemical
One assay addresses T1, human MMP8 (Homo sapiens, UniProt P22894).
T1 construct: human MMP8 (Uniprot P22894), amino acids 100–262; made in house; host or cells: E. coli
The experiment in a line: Selectivity assay MMP8. The protocol: (§1) All biochemical assays were performed at room temperature in 384-well plates in a total volume of 25.25 μl per well. Test compounds were dissolved in 90% (v/v) DMSO/water. For the assays, 250 nl of compound solution was added per well, followed by addition of 12.5 μl protease solution. After 70 min of pre-incubation at room temperature, the reactions were started by addition of 12.5 μl substrate solution and followed either by measuring fluorescence intensity (rhodamine 110-based substrates) or by fluorescence lifetime (PT14-based substrates). The effect of compound on enzymatic activity was obtained from the linear part of the progress curves and determined after 1 h (t=60 min). The final compound concentrations ranged from 100 μM to 1 nM.
(§2) Matrix metalloproteinases. Human MMP1 (Uniprot P03956), amino acids 1–469, expressed in and purified from stable transfected C127 cells; human MMP2 (Uniprot P08253), amino acids 1–660, expressed in and purified from insect cells (baculovirus expression system); human MMP8 (Uniprot P22894), amino acids 100–262, expressed in and purified from E. coli; human MMP9 (Uniprot P14780), amino acids 1–707, expressed in and purified from stable transfected 293 cells; human MMP12 (Uniprot P39900), amino acids 101–268, expressed in and purified from E. coli; human MMP13 (Uniprot P45452), amino acids 103–274, expressed in and purified from E. coli; human MMP14 (Uniprot P50281), amino acids 112–284, expressed in and purified from E. coli; human ADAM17 (Uniprot P78536), amino acids 1–670, expressed in and purified from insect cells (baculovirus expression system); substrate: Ac-C(PT14)-[…]-NH2 purchased from Biosyntan (product number 8069); enzyme concentrations: 3 nM (MMP1), 1 nM (MMP2), 3 nM (MMP8), 0.1 nM (MMP9), 0.5 nM (MMP12), 0.13 nM (MMP13), 0.005 nM (MMP14), 30 nM (ADAM17); substrate concentration: 0.8 μM; assay buffer: 100 mM Tris, pH 7.4, 100 mM NaCl, 10 mM CaCl2, 10 μM ZnCl2, 0.075% (v/v) Brij35.

In a further assay the target is T2, human MMP2 (Homo sapiens, UniProt P08253).
T2 construct: human MMP2 (Uniprot P08253), amino acids 1–660; made in house; host or cells: insect cells (baculovirus)
T2 sequence (P08253 30-660): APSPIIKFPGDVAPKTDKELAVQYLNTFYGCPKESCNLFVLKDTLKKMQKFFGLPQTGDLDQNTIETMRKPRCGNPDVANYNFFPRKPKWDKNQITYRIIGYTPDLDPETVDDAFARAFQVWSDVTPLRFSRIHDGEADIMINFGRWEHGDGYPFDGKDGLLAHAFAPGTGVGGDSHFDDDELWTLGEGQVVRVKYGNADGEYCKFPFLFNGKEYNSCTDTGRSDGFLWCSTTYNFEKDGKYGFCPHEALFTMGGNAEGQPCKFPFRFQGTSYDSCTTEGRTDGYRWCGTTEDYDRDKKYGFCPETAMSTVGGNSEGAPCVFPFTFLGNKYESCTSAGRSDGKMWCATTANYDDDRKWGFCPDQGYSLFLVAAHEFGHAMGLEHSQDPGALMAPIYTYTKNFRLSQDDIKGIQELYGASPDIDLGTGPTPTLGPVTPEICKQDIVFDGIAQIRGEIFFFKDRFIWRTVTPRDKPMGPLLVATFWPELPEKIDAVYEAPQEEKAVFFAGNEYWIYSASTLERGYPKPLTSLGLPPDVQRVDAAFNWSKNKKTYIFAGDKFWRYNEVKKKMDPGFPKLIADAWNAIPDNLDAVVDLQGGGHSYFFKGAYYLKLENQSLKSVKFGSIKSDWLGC
The experiment in a line: Selectivity assay MMP2. The protocol:
as §1, §2

In the next assay the target is T3, human ADAM17 (Homo sapiens, UniProt P78536).
T3 construct: human ADAM17 (Uniprot P78536), amino acids 1–670; made in house; host or cells: insect cells (baculovirus)
T3 sequence (P78536 18-670): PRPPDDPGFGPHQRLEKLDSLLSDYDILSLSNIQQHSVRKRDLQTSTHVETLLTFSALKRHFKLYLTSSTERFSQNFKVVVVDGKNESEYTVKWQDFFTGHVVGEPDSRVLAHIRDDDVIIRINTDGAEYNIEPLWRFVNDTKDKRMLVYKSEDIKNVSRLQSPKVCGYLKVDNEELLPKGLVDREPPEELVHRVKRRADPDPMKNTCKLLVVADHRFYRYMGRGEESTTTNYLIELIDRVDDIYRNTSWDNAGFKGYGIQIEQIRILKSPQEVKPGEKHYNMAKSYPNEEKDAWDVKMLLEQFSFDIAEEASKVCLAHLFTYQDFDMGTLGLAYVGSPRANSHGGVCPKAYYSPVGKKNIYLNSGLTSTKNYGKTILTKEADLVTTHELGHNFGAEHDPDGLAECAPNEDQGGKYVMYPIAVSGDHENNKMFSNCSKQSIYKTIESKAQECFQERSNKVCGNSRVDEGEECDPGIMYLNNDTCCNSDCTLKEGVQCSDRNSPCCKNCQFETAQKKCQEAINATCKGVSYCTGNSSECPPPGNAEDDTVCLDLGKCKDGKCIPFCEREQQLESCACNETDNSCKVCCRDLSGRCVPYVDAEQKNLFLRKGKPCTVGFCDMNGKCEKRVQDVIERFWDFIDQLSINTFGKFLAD
The experiment in a line: Selectivity assay ADAM17. The protocol:
as §1, §2

The target in another assay is T4, Human AMSHLP (Homo sapiens, UniProt Q96FJ0).
T4 construct: made in house; host or cells: E. coli
T4 sequence (Q96FJ0 1-436): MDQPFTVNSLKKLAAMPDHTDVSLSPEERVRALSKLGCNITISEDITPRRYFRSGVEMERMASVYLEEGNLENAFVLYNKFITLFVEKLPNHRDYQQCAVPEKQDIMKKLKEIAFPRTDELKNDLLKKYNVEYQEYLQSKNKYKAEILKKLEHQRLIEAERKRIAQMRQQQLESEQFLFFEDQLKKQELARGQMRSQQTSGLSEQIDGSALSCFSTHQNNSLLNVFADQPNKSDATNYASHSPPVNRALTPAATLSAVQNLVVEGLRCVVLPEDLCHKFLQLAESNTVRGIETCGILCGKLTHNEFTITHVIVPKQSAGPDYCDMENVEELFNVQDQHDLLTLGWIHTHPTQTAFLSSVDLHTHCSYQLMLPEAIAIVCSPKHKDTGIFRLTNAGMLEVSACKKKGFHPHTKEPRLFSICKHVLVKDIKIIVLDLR
The experiment in a line: Selectivity assay AMSHLP (ubiquitin-rhodamine110-glycine substrate). Conditions: JAMM domain protease. The protocol:
as §1
Human AMSHLP. Enzyme was expressed in and purified from E. coli; substrate: ubiquitin-rhodamine110-glycine was purchased from emp Biotech GmbH (Berlin, Germany; product number AS 09/12-A4); enzyme concentration: 4 nM; substrate concentration: 200 nM; assay buffer: 100 mM Tris/HCl at pH 7.5, 10 mM CaCl2, 100 mM NaCl, 10 μM ZnCl2, 0.005% (v/v) BRIJ 35 and 5 mM dithioerythritol (DTE).

The next assay addresses T5, CSN5 (Homo sapiens, UniProt Q92905).
T5 construct: made in house; host or cells: Sf21 insect cells, co-infection of separate baculoviruses
The experiment in a line: CSN5 activity assay (CSN deneddylation, fluorescence polarization). Conditions: JAMM domain protease; means±s.d. The protocol: Unlike the majority of proteases, it is not active as an individual subunit or as an isolated catalytic domain. […] For the identification of CSN inhibitors, we therefore conducted a high-throughput screening campaign using a biochemical assay with recombinant CSN and a fluorescence-labelled and NEDD8-modified CRL substrate[30][40] (PT22-NEDD8-SCF^Skp2; Supplementary Table 1).
The potency of CSN5 inhibitors was determined in a CSN activity assay using changes in fluorescence polarization as the readout. Reactions were carried out at room temperature in 384-well plates. […] The effect of compound on enzymatic activity was determined from the linear part of the progression curves by an end-point measurement of the fluorescence polarization at 590 nm after excitation at 540 nm using a PHERAstar plate reader (BMG LABTECH GmbH). IC50 values were calculated from the plot of percentage of inhibition versus inhibitor concentration using the non-linear regression analysis software Origin 7.5SR6 (OriginLab Corp.).
Background: Fluorescence polarisation rises when a labelled molecule tumbles more slowly, as on binding a larger partner.

The target of another assay is T6, human MMP14 (Homo sapiens, UniProt P50281).
T6 construct: human MMP14 (Uniprot P50281), amino acids 112–284; made in house; host or cells: E. coli
The experiment in a line: Selectivity assay MMP14. The protocol: as §1, §2

Another assay has as its target T7, human MMP12 (Homo sapiens, UniProt P39900).
T7 construct: human MMP12 (Uniprot P39900), amino acids 101–268; made in house; host or cells: E. coli
The experiment in a line: Selectivity assay MMP12. The protocol: as §1, §2

The next assay has as its target T8, human MMP13 (Homo sapiens, UniProt P45452).
T8 construct: human MMP13 (Uniprot P45452), amino acids 103–274; made in house; host or cells: E. coli
The experiment in a line: Selectivity assay MMP13. The protocol:
as §1, §2

A further assay deals with T9, human MMP9 (Homo sapiens, UniProt P14780).
T9 construct: human MMP9 (Uniprot P14780), amino acids 1–707; made in house; host or cells: stably transfected 293 cells
T9 sequence (P14780 20-707): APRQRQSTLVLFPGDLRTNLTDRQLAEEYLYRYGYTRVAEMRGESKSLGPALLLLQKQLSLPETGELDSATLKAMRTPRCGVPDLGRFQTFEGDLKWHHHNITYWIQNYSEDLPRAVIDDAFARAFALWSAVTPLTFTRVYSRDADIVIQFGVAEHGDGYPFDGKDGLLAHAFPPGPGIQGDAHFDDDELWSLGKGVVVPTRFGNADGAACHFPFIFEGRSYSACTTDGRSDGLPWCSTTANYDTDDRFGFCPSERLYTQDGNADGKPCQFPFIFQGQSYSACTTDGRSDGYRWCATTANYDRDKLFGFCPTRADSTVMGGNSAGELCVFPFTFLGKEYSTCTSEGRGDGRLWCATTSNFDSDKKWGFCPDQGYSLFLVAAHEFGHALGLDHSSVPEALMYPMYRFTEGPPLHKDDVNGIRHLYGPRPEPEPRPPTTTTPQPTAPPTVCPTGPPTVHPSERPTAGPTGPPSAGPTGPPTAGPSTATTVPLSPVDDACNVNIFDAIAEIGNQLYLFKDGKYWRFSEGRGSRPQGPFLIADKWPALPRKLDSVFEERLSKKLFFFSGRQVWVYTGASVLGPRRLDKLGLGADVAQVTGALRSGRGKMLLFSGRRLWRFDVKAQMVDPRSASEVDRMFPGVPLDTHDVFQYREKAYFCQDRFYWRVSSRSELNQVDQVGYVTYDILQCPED
The experiment in a line: Selectivity assay MMP9. The protocol: as §1, §2

T1 sequence (P22894 100-262): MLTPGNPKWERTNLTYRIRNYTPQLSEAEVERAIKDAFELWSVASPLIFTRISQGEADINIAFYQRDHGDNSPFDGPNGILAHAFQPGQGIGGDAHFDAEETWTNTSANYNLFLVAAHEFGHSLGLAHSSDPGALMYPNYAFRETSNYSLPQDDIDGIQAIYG
T7 sequence (P39900 101-268): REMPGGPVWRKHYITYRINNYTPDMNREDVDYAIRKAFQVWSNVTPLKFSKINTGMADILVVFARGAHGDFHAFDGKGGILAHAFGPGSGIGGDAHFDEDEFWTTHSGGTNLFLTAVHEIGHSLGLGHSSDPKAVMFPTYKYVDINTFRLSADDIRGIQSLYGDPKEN

For `N#Cc1ccc(C2C(O)CCCc3cncn32)c(-c2ccccc2Cl)c1` (stereo not drawn) [CSN5i-1b], the IC50 was more than 100 µM at human MMP8; more than 100 µM against human MMP2; more than 100 µM against human ADAM17; more than 100 µM on Human AMSHLP; 1.1 ± 0.5 µM on CSN5; more than 100 µM on human MMP14. The IC50 on human MMP12, at human MMP13 and on human MMP9 was more than 100 µM each time.
